In patent publication US6194387A, “6-O-aklyl erythromycin B oxime” (Abbott Laboratories, priority 1999, dated 2001):
≈ marks a conversion by molar mass, not a printed value. Like-named read-outs stand apart in the source and are kept apart here.

What was measured:
EN[…] [1] = test: in vitro antibacterial activity, agar dilution MIC; type: cell-based, Enterobacter aerogenes; details: Klebsiella aerogenes, ATCC13048, read-out: SMIC
Description: (§1) 6-O-Methyl-9-oxime erythromycin B prepared in accordance with Examples 1 and 2 was assayed in vitro for anitbacterial activity as follows: Twelve petri dishes containing successive aqueous dilutions of the test compound mixed with 10 mL of sterilized Brain Heart Infusion (BHI) agar (Difco 0418-01-5) were prepared. Each plate was inoculated with 1:100 (or 1:10 for slow-growing strains, such as Micrococcus and Streptococcus) dilutions of up to 32 different micoorganisims, using a Steers replicatore block. The inoculated plates were incubated at 35-37° C. for 20 to 24 hours. In addition, a control plate, using BHI agar containing no test compound, was prepared and incubated at the beginning and end of each test.
(§2) An additional plate containing a compound having known susceptibility patterns for the organisms being tested and belonging to the same antibiotic class as the test compound was also prepared and incubated as further control, as well as to provide test-to-test comparability. Erythromycin A was used for this purpose.
(§3) After incubation, each disk was read. The minimum inhibitory concentration (MIC) was defined as the lowest concentration of drug yielding no growth, a slight haze, or sparsely isolated colonies on the inoculum spot as compared to the growth control.

NOCARDIA ASTEROIDES = test: in vitro antibacterial activity, agar dilution MIC; type: cell-based; details: ATCC9970, Table 2, ATCC 9970, read-out: SMIC
Description: as §1, §2, §3

PSEUDOMONAS AERUGINOSA = test: in vitro antibacterial activity, agar dilution MIC; type: cell-based
Description: as §1, §2, §3

[2] = test system: ACINETOBACTER CALCOACETICUS; test: in vitro antibacterial activity, agar dilution MIC; type: cell-based; details: read-out: SMIC
Description: as §1, §2, §3

PROVIDENCIA STUART II = test: in vitro antibacterial activity, agar dilution MIC; type: cell-based; details: read-out: SMIC
Description: as §1, §2, §3

[3] = test system: STAPHYLOCOCCUS EPIDERMIDIS; test: in vitro antibacterial activity, agar dilution MIC; type: cell-based; details: read-out: SMIC
Description: as §1, §2, §3

[4] = test system: STAPHYLOCOCCUS PNEUMONIAE; test: in vitro antibacterial activity, agar dilution MIC; type: cell-based
Description: as §1, §2, §3

STAPHYLOCOCCUS BOVIS = test: in vitro antibacterial activity, agar dilution MIC; type: cell-based; details: read-out: SMIC
Description: as §1, §2, §3

KLEBSIELLA PNEUMONIAE = test: in vitro antibacterial activity, agar dilution MIC; type: cell-based; details: ATCC8045, read-out: SMIC
Description: as §1, §2, §3

STAPHYLOCOCCUS PYOGENES = test: in vitro antibacterial activity, agar dilution MIC; type: cell-based
Description: as §1, §2, §3

MYCOBACTERIIUM SMEGMATIS = test: in vitro antibacterial activity, agar dilution MIC; type: cell-based; details: read-out: SMIC
Description: as §1, §2, §3

HAEMOPHILUS INFLUENZAE = test: in vitro antibacterial activity, agar dilution MIC; type: cell-based
Description: as §1, §2, §3

PSEUDOMONAS CEPACIA = test: in vitro antibacterial activity, agar dilution MIC; type: cell-based; details: Burkholderia cepacia; Table 2; 2961; read-out: SMIC
Description: as §1, §2, §3

M[…] [5] = test: in vitro antibacterial activity, agar dilution MIC; type: cell-based; details: Micrococcus luteus, ATCC4698, read-out: SMIC
Description: as §1, §2, §3

STAPHYLOCOCCUS AUREUS = test: in vitro antibacterial activity, agar dilution MIC; type: cell-based
Description: as §1, §2, §3

EN[…] [6] = test: in vitro antibacterial activity, agar dilution MIC; type: cell-based; details: Enterococcus faecium, ATCC8043, read-out: SMIC
Description: as §1, §2, §3

STAP[…] = test: in vitro antibacterial activity, agar dilution MIC; type: cell-based, Staphylococcus agalactiae; details: Staphylococcus, read-out: SMIC
Description: as §1, §2, §3

M[…] [7] = test: in vitro antibacterial activity, agar dilution MIC; type: cell-based, Micrococcus pyogenes; details: Staphylococcus aureus, ATCC9341, read-out: SMIC
Description: as §1, §2, §3

CANDIDA ALBICANS = test: in vitro antimicrobial activity, agar dilution MIC; type: cell-based; details: read-out: SMIC
Description: as §1, §2, §3

CC[C@H]1OC(=O)[C@H](C)[C@@H](O[C@H]2C[C@@](C)(OC)[C@@H](O)[C@H](C)O2)[C@H](C)[C@@H](O[C@@H]2O[C@H](C)C[C@H](N(C)C)[C@H]2O)[C@](C)(O)C[C@@H](C)C(=O)[C@H](C)[C@@H](O)[C@]1(C)O [Erythromycin A, reference compound]
MIC (EN[…] [1]): > 100 µg/mL
MIC (NOCARDIA ASTEROIDES): 5 ng/mL (≈ 0.00681 µM)
MIC (PSEUDOMONAS AERUGINOSA; read-out: SMIC, Table 2, 5007): > 100 µg/mL
MIC (PSEUDOMONAS AERUGINOSA; read-out: SMIC, Table 2, BMH10): 100 µg/mL (≈ 136 µM)
MIC (PSEUDOMONAS AERUGINOSA; read-out: SMIC, Table 2, DPHD-2862): > 100 µg/mL
MIC (PSEUDOMONAS AERUGINOSA; read-out: SMIC, Table 2, DPHD-5263): > 100 µg/mL
MIC (PSEUDOMONAS AERUGINOSA; read-out: SMIC, Table 2, K799/61): 0.78 µg/mL (≈ 1.06 µM)
MIC (PSEUDOMONAS AERUGINOSA; read-out: SMIC, Table 2, K799/wt): > 100 µg/mL
MIC [2]: 12.5 µg/mL (≈ 17 µM)
MIC (PROVIDENCIA STUART II): > 100 µg/mL
MIC [3]: 0.2 µg/mL (≈ 0.273 µM)
MIC ([4]; read-out: SIMC, Table 3, 5649): 8 µg/mL (≈ 10.9 µM)
MIC ([4]; read-out: SIMC, Table 3, 5654): 16 µg/mL (≈ 21.8 µM)
MIC ([4]; read-out: SIMC, Table 3, 5728): 128 µg/mL (≈ 174 µM)
MIC ([4]; read-out: SIMC, Table 3, 5737): 128 µg/mL (≈ 174 µM)
MIC ([4]; read-out: SIMC, Table 3, 5979): 128 µg/mL (≈ 174 µM)
MIC ([4]; read-out: SIMC, Table 3, GYR 1171): 0.03 µg/mL (≈ 0.0409 µM)
MIC (STAPHYLOCOCCUS BOVIS): 0.01 µg/mL (≈ 0.0136 µM)
MIC (KLEBSIELLA PNEUMONIAE): > 100 µg/mL
MIC (STAPHYLOCOCCUS PYOGENES; read-out: SIMC, Table 3, 930): 128 µg/mL (≈ 174 µM)
MIC (STAPHYLOCOCCUS PYOGENES; read-out: SIMC, Table 3, EES61): 0.03 µg/mL (≈ 0.0409 µM)
MIC (STAPHYLOCOCCUS PYOGENES; read-out: SIMC, Table 3, PIU 2548): 16 µg/mL (≈ 21.8 µM)
MIC (STAPHYLOCOCCUS PYOGENES; read-out: SMIC, Table 2, 930): > 100 µg/mL
MIC (STAPHYLOCOCCUS PYOGENES; read-out: SMIC, Table 2, EES61): 0.01 µg/mL (≈ 0.0136 µM)
MIC (STAPHYLOCOCCUS PYOGENES; read-out: SMIC, Table 2, PIU 2548): 6.2 µg/mL (≈ 8.45 µM)
MIC (MYCOBACTERIIUM SMEGMATIS): 12.5 µg/mL (≈ 17 µM)
MIC (HAEMOPHILUS INFLUENZAE; ATCC10211, read-out: SIMC, Table 3, ATCC 10211): 8 µg/mL (≈ 10.9 µM)
MIC (HAEMOPHILUS INFLUENZAE; ATCC19418, read-out: SIMC, Table 3, ATCC 19418): 8 µg/mL (≈ 10.9 µM)
MIC (HAEMOPHILUS INFLUENZAE; ATCC43095, read-out: SIMC, Table 3, ATCC 43095): 1 µg/mL (≈ 1.36 µM)
MIC (HAEMOPHILUS INFLUENZAE; read-out: SIMC, Table 3, CMX 503B): 8 µg/mL (≈ 10.9 µM)
MIC (HAEMOPHILUS INFLUENZAE; read-out: SIMC, Table 3, CMX 504): 8 µg/mL (≈ 10.9 µM)
MIC (HAEMOPHILUS INFLUENZAE; read-out: SIMC, Table 3, CMX 519A): 4 µg/mL (≈ 5.45 µM)
MIC (HAEMOPHILUS INFLUENZAE; read-out: SIMC, Table 3, CMX 566A): 4 µg/mL (≈ 5.45 µM)
MIC (HAEMOPHILUS INFLUENZAE; read-out: SIMC, Table 3, CMX 588A): 4 µg/mL (≈ 5.45 µM)
MIC (HAEMOPHILUS INFLUENZAE; read-out: SIMC, Table 3, CMX 632A): 4 µg/mL (≈ 5.45 µM)
MIC (HAEMOPHILUS INFLUENZAE; read-out: SIMC, Table 3, CMX 747C): 8 µg/mL (≈ 10.9 µM)
MIC (HAEMOPHILUS INFLUENZAE; read-out: SIMC, Table 3, CMX 751): 8 µg/mL (≈ 10.9 µM)
MIC (HAEMOPHILUS INFLUENZAE; read-out: SIMC, Table 3, GYR 1177): 0.25 µg/mL (≈ 0.341 µM)
MIC (HAEMOPHILUS INFLUENZAE; read-out: SIMC, Table 3, GYR 1435): 2 µg/mL (≈ 2.73 µM)
MIC (HAEMOPHILUS INFLUENZAE; read-out: SIMC, Table 3, SOL AMP R): 4 µg/mL (≈ 5.45 µM)
MIC (HAEMOPHILUS INFLUENZAE; read-out: SIMC, Table 3, SPK AMP R): 4 µg/mL (≈ 5.45 µM)
MIC (PSEUDOMONAS CEPACIA): > 100 µg/mL
MIC (M[…] [5]): 0.39 µg/mL (≈ 0.531 µM)
MIC (STAPHYLOCOCCUS AUREUS; ATCC6538P, read-out: SMIC, Table 2, ATCC 6538P): 0.39 µg/mL (≈ 0.531 µM)
MIC (STAPHYLOCOCCUS AUREUS; read-out: SMIC, Table 2, 1775): > 100 µg/mL
MIC (STAPHYLOCOCCUS AUREUS; read-out: SMIC, Table 2, A5177): 12.5 µg/mL (≈ 17 µM)
MIC (STAPHYLOCOCCUS AUREUS; read-out: SMIC, Table 2, A-5278): > 100 µg/mL
MIC (STAPHYLOCOCCUS AUREUS; read-out: SMIC, Table 2, CMX 553): 0.39 µg/mL (≈ 0.531 µM)
MIC (STAPHYLOCOCCUS AUREUS; read-out: SMIC, Table 2, CMX 642A): 0.39 µg/mL (≈ 0.531 µM)
MIC (STAPHYLOCOCCUS AUREUS; read-out: SMIC, Table 2, NCTC10649M): 0.39 µg/mL (≈ 0.531 µM)
MIC (EN[…] [6]): 0.05 µg/mL (≈ 0.0681 µM)
MIC (STAP[…]): 0.01 µg/mL (≈ 0.0136 µM)
MIC (M[…] [7]): 0.01 µg/mL (≈ 0.0136 µM)
MIC (CANDIDA ALBICANS): > 100 µg/mL
